Measurements as given in PubChem BioAssay (NCI).
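Results reflect a 48-hour exposure of cells in 96-well plates to compound at five concentrations. TGI: concentration producing complete growth inhibition.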

Columns and labels:
Test in all cases: inhibition of tumour cell growth, NCI panel, 48 h
786-0 renal = system: 786-0 renal
DMS 273 small cell lung = system: DMS 273 small cell lung
HOP-18 NSCLC = system: HOP-18 NSCLC
LXFL 529 NSCLC = system: LXFL 529 NSCLC
M19-MEL melanoma = system: M19-MEL melanoma
NCI-H460 lung = system: NCI-H460 lung
SF-295 CNS = system: SF-295 CNS
SK-MEL-2 melanoma = system: SK-MEL-2 melanoma
TK-10 renal = system: TK-10 renal

Row | SMILES | TGI (786-0 renal) [µM] | TGI (DMS 273 small cell lung) [µM] | TGI (HOP-18 NSCLC) [µM] | TGI (LXFL 529 NSCLC) [µM] | TGI (M19-MEL melanoma) [µM] | TGI (NCI-H460 lung) [µM] | TGI (SF-295 CNS) [µM] | TGI (SK-MEL-2 melanoma) [µM] | TGI (TK-10 renal) [µM]
1 | NC1=NC(Cn2nc(-c3ccccc3)c3ccccc3c2=O)=NNC(=O)N1 | > 100 | > 100 | > 100 | > 100 | > 100 | > 100 | > 100 | > 100 | > 100
2 | CC(=O)Nc1ccc(C2CC(c3ccc([N+](=O)[O-])cc3)=Nc3ccccc3S2=O)cc1 (stereo not drawn) | 22.6 | 35.8 | > 100 | 34.6 | 38 | 47.9 | 93.2 | > 100 | 64.7
3 | COc1cc(/C=C2\NC(=O)C(Cc3cc(OC)c(OC)c(C)c3OC)N(C(C)=O)C2=O)c(OC)c(C)c1OC (stereo not drawn) | > 100 | > 100 | 99.6 | > 100 | > 100 | > 100 | > 100 | > 100 | > 100
4 | CCOC(=O)/C(=C/c1ccccn1)C(=O)c1ccccc1 | 25.9 | 27.3 | 32.7 | 23.5 | 31.3 | > 62.8 | 27.6 | 28.9 | 32.3
5 | N#Cc1ccc(Sc2nc3ccccc3[nH]2)cc1 | > 100 | > 100 | > 100 | > 100 | > 100 | > 100 | > 100 | > 100 | > 100
6 | COC(=O)C(C(=O)C(=O)Nc1c(Cl)cc([N+](=O)[O-])cc1Cl)c1csc(-n2nc(C3=CCCCC3)cc2-c2ccccc2)n1 (stereo not drawn) | > 100 | > 100 | > 100 | > 100 | > 100 | > 100 | > 100 | > 100 | > 100
7 | CC1NOC(=O)C1N=Nc1ccc(Cl)cc1Cl (stereo not drawn) | 41.9 | 56.8 | 50.4 | 45.3 | 64.3 | 59.5 | 68.6 | 75 | 62.7
8 | O=C1C2C3C=CC(C2C(=O)N1CO)C1C2C(=O)N(CO)C(=O)C2C31 (stereo not drawn) | > 58.6 | > 59.1 | 76.7 | > 100 | > 100 | > 54.5 | > 100 | > 100 | > 100
9 | NNC(=O)C(=O)NN=C(C(Cl)(Cl)CO)C(Cl)(Cl)CO | > 100 | > 100 | > 100 | > 100 | 46.8 | > 100 | > 100 | > 100 | > 100
10 | O=NN(CCCl)C(=O)NC1CCC(CC(=O)O)CC1 (stereo not drawn) | > 100 | > 100 | > 100 | > 100 | > 100 | > 100 | > 100 | > 100 | > 100
11 | CC12OC(=O)C(C#N)C1(C)C1C(=O)CCCC12 (stereo not drawn) | > 100 | > 100 | > 100 | > 100 | > 100 | > 100 | > 100 | > 100 | > 100
12 | Nc1nc(=S)c2c(ncn2CCO)[nH]1 | > 100 | > 100 | > 100 | > 100 | > 100 | > 100 | > 100 | > 100 | > 100
